Data taken from patent publication US8557764B2, “Methods of modulating immune function” (The Regents of the University of Colorado, a body corporate, priority 2007, dated 2013).
No end group written: not given here. *: point of attachment. Biotin = O=C1N[C@H]2[C@H](CS[C@H]2CCCCC(=O)*)N1

What was measured:
[1] = relative to cyclosporin; cited from earlier work
[2] = tested on: cell surface CD1d on Raji and Daudi cells; assay: Cell surface expression of CD1d after competing peptide treatment (flow cytometry); format: cell-based, human; conditions: 50 microMolar, both cell lines
Procedure: (§1) The ability of synthetic peptides to compete with binding of CLIP peptides and result in the cell surface expression of CD1d was determined.
(§2) Results: The results shown in FIG. 5 are expressed in histogram analyses. The Y axis represents cell number of the 5000 live cells versus the X axis which is a reflection of relative Fitc fluorescence versus Streptavidin-PE (eBioscience, Cat. #12-4317) that will bind with high affinity to cell-bound biotinylated peptides. The distance between the histogram from the isotype control staining versus the histogram reflecting the specific stain and is a measure of level of cell surface CD1d.
(§3) Cell Culture Conditions: The Raji and Daudi cell lines were purchased from American Type Culture Collection, were thawed, and grown in RPMI 1640 medium supplemented with standard supplements, including 10% fetal calf serum, gentamycin, penicillin, streptomycin, sodium pyruvate, HEPES buffer, 1-glutamine, and 2-ME.
(§4) Protocol: Cells were plated into a 12 well plate with 3 mls total volume containing approximately 1.5×10^6/well for Daudi cells and 3.0×10^6/well for Raji cells. Treatment groups included no treatment as control and biotinylated […] […]
(§5) Harvested cells were stained using standard staining procedure that called for a 1:100 dilution of PE anti-CD1d. […] Samples were acquired and analyzed on a Coulter Excel Flow Cytometer.

[3] = tested on: human B cell lines, Raji and Daudi; assay: Binding of biotinylated synthetic peptide to B cell lines (Streptavidin-PE flow cytometry); format: cell-based; conditions: 50 microMolar
Procedure: as §1, §2, §3, §4, §5

[4] = tested on: cell surface CLIP on Raji or Daudi cells; assay: MKN1 (bioCLIP) effect on cell surface CLIP levels (flow cytometry); format: cell-based, human; conditions: 24 and 48 hours
Procedure: (§6) The ability of MKN1 (bioCLIP) to alter cell surface CLIP and CD74 levels was determined using Raji or Daudi cells.
(§7) Data were analyzed by histogram with Y axis represents cell number of the 5000 live cells versus the X axis which is a reflection of relative FITC fluorescence with either antibodies to CLIP or CD74. The distance between the histogram from the isotype control staining versus the histogram reflecting the specific stain and is a measure of level of cell surface CLIP or CD74 when staining a population of live Raji or Daudi cells.
as §3
(§8) Protocol: Cells were plated into a 12 well plate with 3 mls total volume containing approximately 0.5×10^6/mL for Daudi cells and 0.5×10^6/mL for Raji cells. […]
(§9) Harvested cells were stained using standard staining procedure that called for a 1:100 dilution of Fitc-anti-human CLIP or CD74 antibody (Fitc, Pharmingen, Cat #554647) or isotype control. […] Samples were acquired and analyzed on a Coulter Excel Flow Cytometer.

[5] = tested on: cell surface CD74 on Raji or Daudi cells; assay: MKN1 (bioCLIP) effect on cell surface CD74 levels (flow cytometry); format: cell-based, human; conditions: 24 and 48 hours
Procedure: as §6, §7, §3, §8, §9

C=CC[C@@H]1/C=C(\C)C[C@H](C)C[C@H](OC)[C@H]2O[C@@](O)(C(=O)C(=O)N3CCCC[C@H]3C(=O)O[C@H](/C(C)=C/[C@@H]3CC[C@@H](O)[C@H](OC)C3)[C@H](C)[C@@H](O)CC1=O)[C@H](C)C[C@@H]2OC [FK506, tacrolimus]
immunosuppressive activity greater than cyclosporin [1]: 10-100 times

Biotinylated FRIMAVLAS: biotinylated synthetic peptide FRIMAVLAS (SEQ ID NO. 2), also referred to as MKN 5 (also: biotinylated)
cell surface expression of CD1d ([2]; 4 hours): marginally
cell surface expression of CD1d ([2]; 24 hours): slightly more
binding of biotinylated peptide to the cell lines ([3]; 4 hours, Raji and Daudi): bound with high affinity
binding of biotinylated peptide to the cell lines ([3]; 24 hours): Less binding

MKN1: 19 mer, Biotin at N-Terminal = Biotinylated CLIP; SGG GSK MRM ATP LLM QAL Y (SEQ ID NO. 5) (Biotin-SGGGSKMRMATPLLMQALY)
cell surface CLIP levels [4]: alters
cell surface CD74 levels [5]: alters
